Assay results taken from patent publication US20200138827A1, “SMALL MOLECULE MODULATORS OF HUMAN STING” (Curadev Pharma Limited, priority 2017, published 2020).
Read-outs that look alike come from different tables or passages of the source.

Experiments:
[1] = tested on: IRF pathway; assay: Reporter gene expression assay in THP1-Dual cells, IRF axis (secreted Lucia luciferase); type: cell-based, human; details: read-out: THP-IRF activity (EC50 range)
Experimental: (§1) THP1-Dual™ cells (Invivogen) were derived from the human THP-1 monocyte cell line by stable integration of two inducible reporter constructs. As a result, THP1-Dual™ cells allow the simultaneous study of the NF-κB pathway, by monitoring the activity of secreted SEAP, and the IRF pathway, by assessing the activity of a secreted luciferase (Lucia). […] THP1-Dual™ cells were seeded in 384-well plates in growth medium and stimulated with novel compounds. After […] of stimulation supernatant were removed and reporter proteins were readily measured in the cell culture supernatant using QUANTI-Blue™ (Invivogen), a SEAP detection reagent, and QUANTI-Luc™ (Invivogen), a luciferase detection reagent on a Spectramax i3X luminometer.

[2] = tested on: NF-κB pathway; assay: Reporter gene expression assay in THP1-Dual cells, NFkB axis (secreted SEAP); type: cell-based, human; details: read-out: THP-NFKB activity (EC50 range)
Experimental: as §1

[3] = target: T1, WT/R232 STING protein (Homo sapiens, UniProt Q86WV6, H232R); assay: Luciferase reporter assay in HEK293T-hSTING-Luciferase cells, WT/R232; type: cell-based; details: 20 hr stimulation, read-out: R232 Activity (EC50 range)
T1 construct: host or cells: HEK293T
T1 sequence (Q86WV6 whole entry H232R): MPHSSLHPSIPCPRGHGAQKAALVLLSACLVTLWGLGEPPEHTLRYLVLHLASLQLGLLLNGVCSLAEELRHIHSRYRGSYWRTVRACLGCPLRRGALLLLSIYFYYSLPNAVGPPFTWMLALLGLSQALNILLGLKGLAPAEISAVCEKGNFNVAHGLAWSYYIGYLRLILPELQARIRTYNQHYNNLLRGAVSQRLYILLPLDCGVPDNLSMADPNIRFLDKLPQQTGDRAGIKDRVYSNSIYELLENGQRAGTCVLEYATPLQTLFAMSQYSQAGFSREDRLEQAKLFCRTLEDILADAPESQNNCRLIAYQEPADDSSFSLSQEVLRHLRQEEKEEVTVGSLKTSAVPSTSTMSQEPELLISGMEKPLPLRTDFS
How it was run: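 […], read by luminescence from supernatant after 20 h compound stimulation. Cells: clonally selected HEK293T (5×10^5/well) stably carrying WT/R232 human STING and a luciferase reporter under five tandem ISREs fused to an ISG54 minimal promoter.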

Structure (SMILES) | EC50 [3] [µM] | other results
CC1(CCl)Sc2ccc(C(=O)NCc3ccc(F)cc3F)cc2N(Cc2c(F)cccc2Cl)C1=O (stereo not shown) [Example 150, 4-(2-chloro-6-fluorobenzyl)-2-(chloromethyl)-N-(2,4-difluorobenzyl)-2-methyl-3-oxo-3,4-dihydro-2H-benzo[b][1,4] thiazine-6-carboxamide] |  | EC50 [1]: 1 to 10 µM; EC50 [2]: 1 to 10 µM
O=C(NCC1CCN(Cc2ccccc2)CC1)c1ccc2c(c1)N(Cc1c(F)cccc1Cl)C(=O)CS2 [Example 48, N-((1-benzylpiperidin-4-yl)methyl)-4-(2-chloro-6-fluorobenzyl)-3-oxo-3,4-dihydro-2H-benzo[b][1,4] thiazine-6-carboxamide] | > 10 | 
O=C(NCc1c(F)cc(F)cc1F)c1ccc2c(c1)N(S(=O)(=O)c1cc(F)cc(F)c1)CCS2 [Example 262, 4-((1,5-Difluorophenyl)sulfonyl)-N-(2,4,6-trifluorobenzyl)-3,4-dihydro-2H-benzo[b-1,4]thiazine-6-carboxamide] | > 10 | 
O=C(NCC(c1ccccc1)C1CCCCC1)c1ccc2c(c1)N(Cc1c(F)cccc1Cl)C(=O)CS2 (stereo not shown) [Example 43, 4-(2-chloro-6-fluorobenzyl)-N-(2-cyclohexyl-2-phenylethyl)-3-oxo-3,4-dihydro-2H-benzo[b][1,4] thiazine-6-carboxamide] | > 10 | 
Cc1cc2c(cc1C(=O)NCc1ccco1)N(Cc1ccccc1)C(=O)CS2 [Example 230, 4-Benzyl-N-(furan-2-ylmethyl)-7-methyl-3-oxo-3,4-dihydro-2H-benzo[b-1,4]thiazine-6-carboxamide] | > 10 | 
O=C(NCc1ccco1)c1ccc2c(c1)N(Cc1nc3ccccc3o1)C(=O)CS2 [Example 7] | > 10 | 
Cc1cccc(CNC(=O)c2ccc3c(n2)N(Cc2c(F)cccc2Cl)C(=O)C(C)S3)c1 (stereo not shown) [Example 184, 4-(2-chloro-6-fluorobenzyl)-2-methyl-N-(3-methylbenzyl)-3-oxo-3,4-dihydro-2H-pyrido[3,2-b-1,4]thiazine-6-carboxamide] | > 10 | 
N#CCC(CNC(=O)c1ccc2c(c1)N(Cc1c(F)cccc1Cl)C(=O)CS2)c1ccccc1 (stereo not shown) [Example 41, 4-(2-chloro-6-fluorobenzyl)-N-(3-cyano-2-phenylpropyl)-3-oxo-3,4-dihydro-2H-benzo[b-1,4]thiazine-6-carboxamide] | > 10 | 
Cc1cnc(CNC(=O)c2ccc3c(c2)N(Cc2ccccc2)C(=O)CS3)s1 [Example 64, 4-benzyl-N-((5-methylthiazol-2-yl)methyl)-3-oxo-3,4-dihydro-2H-benzo[b-1,4]thiazine-6-carboxamide] | > 10 | 
O=C(NCc1ccco1)c1ccc2c(c1)N(Cc1ccc(Cl)cc1)CCS2 [Example 250, 4-(4-Chlorobenzyl)-N-(furan-2-ylmethyl)-3,4-dihydro-2H-benzo[b-1,4]thiazine-6-carboxamide] | > 10 | 
CN(Cc1ccco1)C(=O)c1ccc2c(c1)N(Cc1ccccc1)C(=O)CS2 [Example 33, 4-benzyl-N-(furan-2-ylmethyl)-N-methyl-3-oxo-3,4-dihydro-2H-benzo[b][1,4] thiazine-6-carboxamide] | > 10 | 
CC1(C)Sc2ccc(C(=O)NCc3ccco3)cc2N(Cc2ccccc2)C1=O [Example 132, 4-Benzyl-N-(furan-2-ylmethyl)-2,2-dimethyl-3-oxo-3,4-dihydro-2H-benzo[b-1,4]thiazine-6-carboxamide] | > 10 | 
O=C(NCc1c(F)cc(F)cc1F)c1cc(CCO)c2c(c1)N(Cc1ccc(F)cc1)C(=O)CS2 [Example 222, 4-(4-fluorobenzyl)-8-(2-hydroxyethyl)-3-oxo-N-(2,4,6-trifluorobenzyl)-3,4-dihydro-2H-benzo[b][1,4] thiazine-6-carboxamide] | > 10 | 
Cc1nnc(CN2C(=O)CSc3ccc(C(=O)NCc4ccco4)cc32)n1C [Example 105, 4-((4,5-dimethyl-4H-1,2,4-triazol-3-yl)methyl)-N-(furan-2-ylmethyl)-3-oxo-3,4-dihydro-2H-benzo[b-1,4]thiazine-6-carboxamide] | > 10 | 
NC(=O)c1cccc(CN2C(=O)CSc3ccc(C(=O)NCc4ccco4)cc32)c1 [Example 86, 4-(3-carbamoylbenzyl)-N-(furan-2-ylmethyl)-3-oxo-3,4-dihydro-2H-benzo[b-1,4]thiazine-6-carboxamide] | > 10 | 
O=C(NCc1cccnc1)c1ccc2c(c1)N(Cc1c(F)cccc1Cl)C(=O)CS2 [Example 109, 4-(2-chloro-6-fluorobenzyl)-3-oxo-N-(pyridin-3-ylmethyl)-3,4-dihydro-2H-benzo[b-1,4]thiazine-6-carboxamide] | > 10 | 

Structure (SMILES) | EC50 [3] [µM] | other results
O=C(NCc1cccs1)c1ccc2c(c1)N(Cc1c(F)cccc1Cl)C(=O)CS2 [Example 107, 4-(2-chloro-6-fluorobenzyl)-3-oxo-N-(thiophen-2-ylmethyl)-3,4-dihydro-2H-benzo[b-1,4]thiazine-6-carboxamide] | 1 to 10 | 
O=C(CN1C(=O)CSc2ccc(C(=O)NCc3ccco3)cc21)Nc1ccccc1 [Example 5, N-(furan-2-ylmethyl)-3-oxo-4-(2-oxo-2-(phenylamino)ethyl)-3,4-dihydro-2H-benzo[b-1,4]thiazine-6-carboxamide] | > 10 | 
CC1Sc2ccc(C(=O)NCc3c(F)cc(F)cc3F)nc2N(Cc2cc(F)cc(F)c2)C1=O (stereo not shown) [Example 185, 4-(3,5-difluorobenzyl)-2-methyl-3-oxo-N-(2,4,6-trifluorobenzyl)-3,4-dihydro-2H-pyrido[3,2-b-1,4]thiazine-6-carboxamide] | 1 to 10 | 
CS(=O)(=O)NCCC1Sc2ccc(C(=O)NCc3c(F)cc(F)cc3F)cc2N(Cc2cc(F)cc(F)c2)C1=O (stereo not shown) [Example 170, 4-(3,5-difluorobenzyl)-2-(2-(methyl-sulfonamido)ethyl)-3-oxo-N-(2,4,6-trifluorobenzyl)-3,4-dihydro-2H-benzo[b] [1,4]thiazine-6-carboxamide] | > 10 | 
Cc1cccc(CNC(=O)c2ccc3c(c2)N(Cc2ccccc2Cl)C(=O)C(C)S3)c1 (stereo not shown) [Example 143, 4-(2-chlorobenzyl)-2-methyl-N-(3-methylbenzyl)-3-oxo-3,4-dihydro-2H-benzo[b-1,4]thiazine-6-carboxamide] | 1 to 10 | 
O=C(NCc1n[nH]c(=O)c2ccccc12)c1ccc2c(c1)N(Cc1ccccc1)C(=O)CS2 [Example 51, 4-benzyl-3-oxo-N-((4-oxo-3,4-dihydrophthalazin-1-yl)methyl)-3,4-dihydro-2H-benzo[b-1,4]thiazine-6-carboxamide] | > 10 | 
O=C(NCc1ccco1)c1ccc2c(c1)N(Cc1cccc(Cl)c1Cl)C(=O)CS2 [Example 11, 4-(2,3-dichloro-benzyl)-N-(furan-2-ylmethyl)-3-oxo-3,4-dihydro-2H-benzo[b-1,4]thiazine-6-carboxamide] | 1 to 10 | 
CC1Sc2ncc(C(=O)NCc3cccnn3)cc2N(Cc2cc(F)cc(F)c2)C1=O (stereo not shown) [Example 214, 1-(3,5-difluorobenzyl)-3-methyl-2-oxo-N-(pyridazin-3-ylmethyl)-2,3-dihydro-1H-pyrido [2,3-b][1,4] thiazine-7-carboxamide] | > 10 | 
CC(NC(=O)c1ccc2c(c1)N(Cc1ccccc1)C(=O)CS2)c1ccco1 (stereo not shown) [Example 68, 4-benzyl-N-(1-(furan-2-yl)ethyl)-3-oxo-3,4-dihydro-2H-benzo[b-1,4]thiazine-6-carboxamide] | > 10 | 
O=C(NCc1ccsc1)c1ccc2c(c1)N(Cc1ccccc1)C(=O)CS2 [Example 61, 4-benzyl-3-oxo-N-(thiophen-3-ylmethyl)-3,4-dihydro-2H-benzo[b-1,4]thiazine-6-carboxamide] | 1 to 10 | 
Cc1ccc(CNC(=O)c2ccc3c(n2)N(Cc2cccc(C(N)=O)c2)C(=O)C(C)S3)o1 (stereo not shown) [Example 205, 4-(3-carbamoyl-benzyl)-2-methyl-N-((5-methylfuran-2-yl)methyl)-3-oxo-3,4-dihydro-2H-pyrido[3,2-b][1,4]thiazine-6-carboxamide] | 1 to 10 | 
O=C(NCCc1ccccc1)c1ccc2c(c1)N(Cc1c(F)cccc1Cl)C(=O)CS2 [Example 129, 4-(2-chloro-6-fluorobenzyl)-3-oxo-N-phenethyl-3,4-dihydro-2H-benzo[b-1,4]thiazine-6-carboxamide] | > 10 | 
O=C(NCc1ccccc1Cl)c1ccc2c(c1)N(Cc1cccc(Cl)c1)C(=O)CS2 [Example 124, N-(2-chlorobenzyl)-4-(3-chlorobenzyl)-3-oxo-3,4-dihydro-2H-benzo[b-1,4]thiazine-6-carboxamide] | > 10 | 
CN(C)C1Sc2ccc(C(=O)NCc3ccco3)cc2N(Cc2ccccc2F)C1=O (stereo not shown) [Example 135, 2-(dimethylamino)-4-(2-fluorobenzyl)-N-(furan-2-ylmethyl)-3-oxo-3,4-dihydro-2H-benzo[b-1,4]thiazine-6-carboxamide] | > 10 | 
CC1Sc2ccc(C(=O)NCc3c(F)cc(F)cc3F)cc2N(Cc2ccccc2F)C1=O (stereo not shown) [Example 140, 4-(2-fluorobenzyl)-2-methyl-3-oxo-N-(2,4,6-trifluorobenzyl)-3,4-dihydro-2H-benzo[b-1,4]thiazine-6-carboxamide] | < 1 | EC50 ([1]; Homo sapiens, THP1-Dual): 1 to 10 µM; EC50 ([2]; Homo sapiens, THP1-Dual): 1 to 10 µM
